From patent US8101550B2, “Anthranilic acid diamide derivative with hetero-aromatic and hetero-cyclic substituents” (Bayer Cropscience AG, priority 2006, dated 2012)
Where two headings read alike, the source gives them in different places.

What was measured:
[1] = log P determination by HPLC on reverse-phase column (EEC Directive 79/831 Annex V.A8); type: physicochemical
Outline: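 Log P was derived from retention times by linear interpolation between successive unbranched alkan-2-one standards (C3–C16). The standards and samples ran on a C18 reverse-phase column at 43 °C with a 10→95% acetonitrile gradient in 0.1% formic acid (pH 2.7). The method follows EEC Directive 79/831 Annex V.A8.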

[2] = tested on: caterpillars of the armyworm (Spodoptera frugiperda); assay: Spodoptera frugiperda test (cabbage leaves, immersion); type: in vivo; conditions: cabbage leaves immersed
Experimental: An appropriate preparation of active compound is prepared by mixing 1 part by weight of active compound with the stated amounts of solvent and emulsifier and diluting the concentrate with emulsifier-containing water to the desired concentration.
Cabbage leaves (Brassica oleracea) are treated by immersion into a preparation of active compound at the desired concentration and, are populated with caterpillars of the armyworm (Spodoptera frugiperda) while the leaves are still wet.
After the desired time the effect in % is determined. 100% means that all of the caterpillars have been killed; 0% means that no caterpillars have been killed.
Cabbage leaves (Brassica oleracea) are treated by immersion into a preparation of active compound at the desired concentration and are populated with caterpillars of the armyworm (Spodoptera frugiperda) while the leaves are still wet.

[3] = HPLC, reverse-phase column (C 18), 43° C., acidic range pH 2.7

Structure (SMILES)	logP [1, 3]	Kill level after 7 d in % ([2]; 100 g/ha) [%]	logP ([1]; HPLC on reverse-phase column)	further results
CNC(=O)c1cc(Cl)cc(C)c1NC(=O)c1cc(Cn2nc(C(F)(F)F)cc2C(F)(F)F)nn1-c1ncccc1Cl [I-1-1, 5-(3,5-Bis-trifluoromethylpyrazol-1-ylmethyl)-2-(3-chloropyridin-2-yl)-2H-pyrazole-3-carboxylic acid 4-chloro-2-methyl-6-methylcarbamoylphenyl amide]		100		chromatographic logP ([1]; pH 2.7): 3.67
Cc1cc(Cl)cc(C(=O)NC(C)C)c1NC(=O)c1cc(Cn2nc(C(F)(F)F)cc2C(F)(F)F)nn1-c1ncccc1Cl [I-1-2]		100	4.08	
Cc1cc(Cl)cc(C(=O)NC(C)C)c1NC(=O)c1cc(Cn2nc(C(F)(F)F)nc2C(F)(F)F)nn1-c1ncccc1Cl [I-1-5]		100	3.88	Kill level after 7 d in % ([2]; 0.8 g/ha): 100%
Cc1cc(Cl)cc(C(=O)NC(C)C)c1NC(=O)c1cc(Cn2ccc(C(F)(F)F)n2)nn1-c1ncccc1Cl [I-1-6]		100	3.27	Kill level after 7 d in % ([2]; 0.8 g/ha): 100%
Cc1cc(Cl)cc(C(=O)NC(C)C)c1NC(=O)c1cc(Cn2cc(F)cn2)nn1-c1ncccc1Cl [I-1-7]		100	2.70	
Cc1cc(Cl)cc(C(=O)NC(C)C)c1NC(=O)c1cc(Cn2cc(C#N)cn2)nn1-c1ncccc1Cl [I-1-8]		100	2.57	Kill level after 7 d in % ([2]; 0.8 g/ha): 100%
Cc1cc(Cl)cc(C(=O)NC(C)C)c1NC(=O)c1cc(Cn2cccn2)nn1-c1ncccc1Cl [I-1-9]		100	2.45	
Cc1cc(Cl)cc(C(=O)NC(C)C)c1NC(=O)c1cc(Cn2nc(C(F)(F)F)cc2C(F)(F)F)nn1-c1ccccc1Cl [I-1-10]		100	4.70	
CNC(=O)c1cc(Cl)cc(C)c1NC(=O)c1cc(Cn2nc(C(F)(F)F)cc2C(F)(F)F)nn1-c1ccccc1Cl [I-1-11]		100	4.12	
Cc1cc(Cl)cc(C(=O)NC(C)C)c1NC(=O)c1cc(Cn2cc(C(F)(F)C(F)(F)F)c(C(F)(F)C(F)(F)F)n2)nn1-c1ncccc1Cl [I-1-12]		100	4.89	
CNC(=O)c1cc(Cl)cc(C)c1NC(=O)c1cc(Cn2cc(I)c(C(F)(F)C(F)(F)F)n2)nn1-c1ncccc1Cl [I-1-16]		100	3.79	
CNC(=O)c1cc(Cl)cc(C)c1NC(=O)c1cc(Cn2cc(Cl)c(C(F)(F)F)n2)nn1-c1ncccc1Cl [I-1-17]		100	3.35	
Cc1cc(Cl)cc(C(=O)NC(C)C)c1NC(=O)c1cc(Cn2ccc(C(F)(F)C(F)(F)F)n2)nn1-c1ncccc1Cl [I-1-18]		100	3.75	
CNC(=O)c1cc(Cl)cc(C)c1NC(=O)c1cc(Cn2ccc(C(F)(F)C(F)(F)F)n2)nn1-c1ncccc1Cl [I-1-19]		100	3.29	
Cc1cc(Br)cc(C(=O)NC(C)C)c1NC(=O)c1cc(Cn2nc(C(F)(F)F)cc2C(F)(F)F)nn1-c1ncccc1Cl [I-1-20]		100	4.16	
Cc1cc(Cl)cc(C(=O)NC(C)C)c1NC(=O)c1cc(Cn2cncn2)nn1-c1ncccc1Cl [I-1-21]		100	2.02	

Structure (SMILES)	logP [1, 3]	Kill level after 7 d in % ([2]; 100 g/ha) [%]	logP ([1]; HPLC on reverse-phase column)	further results
Cc1cc(Cl)cc(C(=O)NC(C)C)c1NC(=O)c1cc(Cn2nc(C(F)(F)C(F)(F)F)nc2C(F)(F)F)nn1-c1ncccc1Cl [I-1-23]		100	4.25	
CNC(=O)c1cc(Br)cc(C)c1NC(=O)c1cc(Cn2nc(C(F)(F)C(F)(F)F)cc2C(F)(F)C(F)(F)F)nn1-c1ncccc1Cl [I-1-24]		100	4.49	
CNC(=O)c1cc(Br)cc(C)c1NC(=O)c1cc(Cn2cc(C(F)(F)C(F)(F)F)c(C(F)(F)C(F)(F)F)n2)nn1-c1ncccc1Cl [I-1-25]		100	4.39	
CNC(=O)c1cc(Cl)cc(C)c1NC(=O)c1cc(Cn2nc(C(F)(F)C(F)(F)F)nc2C(F)(F)C(F)(F)F)nn1-c1ncccc1Cl [I-1-26]		100	4.17	
CNC(=O)c1cc(Cl)cc(C)c1NC(=O)c1cc(Cn2cnc(C(F)(F)C(F)(F)F)n2)nn1-c1ncccc1Cl [I-1-347]				logP [1]: 2.19
Cc1cc(Cl)cc(C(=O)NCC#N)c1NC(=O)c1cc(Cn2cnc(C(F)(F)C(F)(F)F)n2)nn1-c1ncccc1Cl [I-1-348]				logP [1]: 2.21
N#CCNC(=O)c1cc(Cl)cc(Cl)c1NC(=O)c1cc(Cn2cnc(C(F)(F)C(F)(F)F)n2)nn1-c1ncccc1Cl [I-1-349]				logP [1]: 2.19
Cc1cc(C#N)cc(C(N)=O)c1NC(=O)c1cc(Cn2cnc(C(F)(F)C(F)(F)F)n2)nn1-c1ncccc1Cl [I-1-350]				logP [1]: 1.75
Cc1cc(C#N)cc(C(=O)NCC#N)c1NC(=O)c1cc(Cn2cnc(C(F)(F)C(F)(F)F)n2)nn1-c1ncccc1Cl [I-1-351]				logP [1]: 1.96
CNC(=O)c1cc(C#N)cc(C)c1NC(=O)c1cc(Cn2cnc(C(F)(F)C(F)(F)F)n2)nn1-c1ncccc1Cl [I-1-352]				logP [1]: 1.91
Cc1cc(C#N)cc(C(=O)NC2CC2)c1NC(=O)c1cc(Cn2cnc(C(F)(F)C(F)(F)F)n2)nn1-c1ncccc1Cl [I-1-353]				logP [1]: 2.08
Cc1cc(C#N)cc(C(=O)NC(C)C)c1NC(=O)c1cc(Cn2cnc(C(F)(F)C(F)(F)F)n2)nn1-c1ncccc1Cl [I-1-354]				logP [1]: 2.23
CNC(=O)c1cc(Cl)cc(C)c1NC(=O)c1cc(C(=NOC)n2nc(C(F)(F)F)cc2C(F)(F)F)nn1-c1ncccc1Cl [I-1-355]				logP [1]: 4.07
Cc1cc(Cl)cc(C(N)=O)c1NC(=O)c1cc(Cn2nc(C(F)(F)F)cc2C(F)(F)F)nn1-c1ncc(C(F)(F)F)cc1Cl [I-2-17]	4.09			
CNC(=O)c1cc(Cl)cc(C)c1NC(=O)c1cc(Cn2nc(C(F)(F)F)cc2C(F)(F)F)nn1-c1ncc(C(F)(F)F)cc1Cl [I-2-22]	3.53			
CNC(=O)c1cc(Cl)cc(Cl)c1NC(=O)c1cc(Cn2nc(C(F)(F)F)cc2C(F)(F)F)nn1-c1ncc(C(F)(F)F)cc1Cl [I-2-23]	3.54			

The next lines start with results.

logP [1, 3]	Structure (SMILES)	Kill level after 7 d in % ([2]; 100 g/ha) [%]	logP ([1]; HPLC on reverse-phase column)	further results
4.08	Cc1cc(Cl)cc(C(=O)NC(C)C)c1NC(=O)c1cc(Cn2nc(C(F)(F)F)cc2C(F)(F)F)nn1C [I-2-1]			
3.85	CC(C)NC(=O)c1cc(Cl)cc(Cl)c1NC(=O)c1cc(Cn2nc(C(F)(F)F)nc2C(F)(F)F)nn1C(C)C [I-2-2]			
3.31	CNC(=O)c1cc(Cl)cc(Cl)c1NC(=O)c1cc(Cn2nc(C(F)(F)F)nc2C(F)(F)F)nn1C(C)C [I-2-3]			
2.83	CNC(=O)c1cc(Cl)cc(Cl)c1NC(=O)c1cc(Cn2nc(C(F)(F)F)nc2C(F)(F)F)nn1C1CCCO1 (stereo not drawn) [I-2-5]			
2.99	CNC(=O)c1cc(Cl)cc(Cl)c1NC(=O)c1cc(Cn2nc(C(F)(F)F)nc2C(F)(F)F)nn1C1CCOC1 (stereo not drawn) [I-2-6]			
4.68	CC(C)NC(=O)c1cc(Cl)cc(Cl)c1NC(=O)c1cc(Cn2nc(C(F)(F)F)cc2C(F)(F)F)nn1-c1ncc(C(F)(F)F)cc1Cl [I-2-8]			
4.98	Cc1cc(I)cc(C(=O)NC(C)C)c1NC(=O)c1cc(Cn2nc(C(F)(F)F)cc2C(F)(F)F)nn1-c1ncc(C(F)(F)F)cc1Cl [I-2-9]			
4.73	Cc1cc(I)cc(C(=O)NC2CC2)c1NC(=O)c1cc(Cn2nc(C(F)(F)F)cc2C(F)(F)F)nn1-c1ncc(C(F)(F)F)cc1Cl [I-2-10]			
4.78	Cc1cc(Cl)cc(C(=O)NC(C)C)c1NC(=O)c1cc(Cn2nc(C(F)(F)F)cc2C(F)(F)F)nn1-c1ncc(C(F)(F)F)cc1Cl [I-2-11]			
4.52	Cc1cc(Cl)cc(C(=O)NC2CC2)c1NC(=O)c1cc(Cn2nc(C(F)(F)F)cc2C(F)(F)F)nn1-c1ncc(C(F)(F)F)cc1Cl [I-2-12]			
4.46	O=C(NC1CC1)c1cc(Cl)cc(Cl)c1NC(=O)c1cc(Cn2nc(C(F)(F)F)cc2C(F)(F)F)nn1-c1ncc(C(F)(F)F)cc1Cl [I-2-13]			
5.27	Cc1cc(Cl)cc(C(=O)NC(C2CC2)C2CC2)c1NC(=O)c1cc(Cn2nc(C(F)(F)F)cc2C(F)(F)F)nn1-c1ncc(C(F)(F)F)cc1Cl [I-2-14]			
4.04	Cc1cc(Cl)cc(C(=O)NC(C)C2CC2)c1NC(=O)c1cc(Cn2nc(C(F)(F)F)cc2C(F)(F)F)nn1-c1ncc(C(F)(F)F)cc1Cl (stereo not drawn) [I-2-15]			
5.12	Cc1cc(Cl)cc(C(=O)NC(C)(C)C)c1NC(=O)c1cc(Cn2nc(C(F)(F)F)cc2C(F)(F)F)nn1-c1ncc(C(F)(F)F)cc1Cl [I-2-16]			
4.23	Cc1cc(Cl)cc(C(=O)NCC#N)c1NC(=O)c1cc(Cn2nc(C(F)(F)F)cc2C(F)(F)F)nn1-c1ncc(C(F)(F)F)cc1Cl [I-2-18]			
4.11	Cc1cc(F)cc(C(=O)NC2CC2)c1NC(=O)c1cc(Cn2nc(C(F)(F)F)cc2C(F)(F)F)nn1-c1ncc(C(F)(F)F)cc1Cl [I-2-19]			
4.47	Cc1cc(F)cc(C(=O)NC(C)C)c1NC(=O)c1cc(Cn2nc(C(F)(F)F)cc2C(F)(F)F)nn1-c1ncc(C(F)(F)F)cc1Cl [I-2-20]			
4.75	Cc1cc(Br)cc(C(=O)NC(C)C)c1NC(=O)c1cc(Cn2nc(C(F)(F)F)cc2C(F)(F)F)nn1-c1ncc(C(F)(F)F)cc1Cl [I-2-21]			
4.63	Cc1cc(Br)cc(C(=O)NC2CC2)c1NC(=O)c1cc(Cn2nc(C(F)(F)F)cc2C(F)(F)F)nn1-c1ncc(C(F)(F)F)cc1Cl [I-2-24]			
4.08	CC(C)NC(=O)c1cc2ccccc2c(Cl)c1NC(=O)c1cc(Cn2nc(C(F)(F)F)cc2C(F)(F)F)nn1-c1ncccc1Cl [I-3-1]			
